How the values were obtained:
[1] = molecular target: T1, human serum albumin (HSA) (Homo sapiens, UniProt P02768); test: intrinsic fluorescence quenching (Stern-Volmer, apparent Ka), with displacement of fluorescent site probes; type: binding
T1 construct: gene ALB

[2] = molecular target: T1, human serum albumin (HSA); test: probe fluorescence enhancement and blue shift on binding; displaced by apocynin

T1 sequence (P02768 25-609): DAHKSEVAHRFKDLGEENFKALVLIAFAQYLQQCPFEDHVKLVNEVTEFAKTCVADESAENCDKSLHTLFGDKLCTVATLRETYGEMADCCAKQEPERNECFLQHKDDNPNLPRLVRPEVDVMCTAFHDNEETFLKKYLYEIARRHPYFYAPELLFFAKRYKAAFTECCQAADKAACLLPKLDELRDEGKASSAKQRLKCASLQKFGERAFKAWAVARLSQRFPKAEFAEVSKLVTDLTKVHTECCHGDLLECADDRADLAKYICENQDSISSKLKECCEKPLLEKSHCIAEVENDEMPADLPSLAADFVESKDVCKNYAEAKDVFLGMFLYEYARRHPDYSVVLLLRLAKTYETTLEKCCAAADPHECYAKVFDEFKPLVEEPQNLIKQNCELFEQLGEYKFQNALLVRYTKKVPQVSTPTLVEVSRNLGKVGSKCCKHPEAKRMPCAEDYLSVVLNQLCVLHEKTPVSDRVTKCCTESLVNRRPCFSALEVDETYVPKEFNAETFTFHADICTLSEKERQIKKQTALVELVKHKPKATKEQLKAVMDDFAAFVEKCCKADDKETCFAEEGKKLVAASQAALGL

Row | Compound | Kd [1] | probe fluorescence enhancement and blue shift on binding; displaced by apocynin [2]
1 | COc1cc(C(C)=O)ccc1O [APO, 4-hydroxy-3-methoxyacetophenone] | 45.7 µM | 
2 | CN(C)c1cccc2c(S(=O)(=O)NCC(=O)O)cccc12 [DG, dansylglycine] |  | apocynin was able to displace both fluorescent probes, but a greater effect was observed using DNSA
3 | CN(C)c1cccc2c(S(N)(=O)=O)cccc12 [DNSA, 5-(dimethylamino)-1-naphthalenesulfonamide] |  | binding of these probes to albumin provoked a significant increase in their fluorescence quantum yield

Source: PMC6269682, “Apocynin: Chemical and Biophysical Properties of a NADPH Oxidase Inhibitor” (Molecules, 2013)
